Reference: PMC5880808, “A lever-like transduction pathway for long-distance chemical- and mechano-gating of the mechanosensitive Piezo1 channel” (Nature Communications, 2018)

Key:
[1] = target: T1, C-terminal extracellular domain (CED; 2214–2457) (Mus musculus, UniProt E2JF22); assay: SPR binding to immobilized purified protein; conditions: without C12E10 detergent
T1 construct: C-terminal extracellular domain (CED; 2214–2457); made in house
T1 sequence (E2JF22 2214-2457): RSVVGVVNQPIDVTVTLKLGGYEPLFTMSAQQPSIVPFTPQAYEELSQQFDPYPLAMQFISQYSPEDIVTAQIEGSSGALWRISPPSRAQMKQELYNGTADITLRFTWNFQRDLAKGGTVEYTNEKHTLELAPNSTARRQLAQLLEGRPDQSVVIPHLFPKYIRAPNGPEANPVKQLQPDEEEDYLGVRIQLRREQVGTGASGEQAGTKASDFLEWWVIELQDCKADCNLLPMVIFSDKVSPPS
Description: (§1) Real-time binding and analysis by SPR were conducted on BIAcore T200 instrument (GE Healthcare) at 25 °C. Proteins were immobilized on a research-grade CM5 sensor chip by amine-coupling methods. During the pH scouting process, 10 mM sodium acetate at various pH including 4.0, 4.5, 5.0, and 5.5 and protein concentrations varying between 10 and 100 μg/ml were screened before immobilization. Except pH 4.5 for mPiezo1-(1–2190), pH 5.0 was used for all other proteins, including mPiezo1, CED, Δ15-16, and Δ19-20. All proteins were diluted to 50 μg/ml in buffer containing 10 mM sodium acetate at the abovementioned pH, 0.026% C12E10 detergent, and 150 mM NaCl, except that the soluble CED proteins, which were diluted in 150 mM NaCl without detergent. During the immobilization process, the CM5 sensor was activated with NHS first, allowing the amine-containing proteins to be coupled to the sensor through NHS. Each CM5 sensor had 4 flow cells, and the flow cells 1 and 3 were often left blank as a reference. Diluted Piezo1 wild-type or mutant proteins (50 μg/ml) in their respective buffers were immobilized on the flow cell 2 or flow cell 4 to the similar level as indicated by the “response bound” parameter.
(§2) For data collection, compounds at various concentrations were diluted in a running buffer containing 1× PBS, 0.026% detergent C12E10, and 0.05% Surfactant P20 (GE Healthcare Bio-Sciences AB) and injected over the flow cells with at a 30 μl/min flow rate. The proteins and the compounds were allowed to associate for 180 s and then dissociate for 180 s. Data were analyzed with the BIAcore T200 evaluation software by fitting to a 1:1 affinity-binding model.

mPiezo1 [2] = target: T2, mPiezo1 (Mus musculus, UniProt E2JF22); assay: Whole-cell poking-induced currents; assay type: cell-based; conditions: for effect on poking currents and inactivation: compound applied to the intracellular side; for increase of poking-induced whole-cell currents: mPiezo1-mRuby2-expressing cells, puffing application of 1 mM Jedi, −80 mV
T2 construct: The full-length mPiezo1 has 2547 amino acids in each monomer; expressed in transfected cells; host or cells: HEK293T
Description: Protocols for HEK293T cell culture, transient transfection, and patch-clamp experiments with an Axopatch 200B amplifier (Axon Instruments) or HEKA EPC10 were essentially similar to how previously described[6],[8]. […] The extracellular solution was composed of (in mM) 133 NaCl, 3 KCl, 2.5 CaCl2, 1 MgCl2, 10 HEPES (pH 7.3 with NaOH), and 10 glucose. All experiments were carried out at room temperature. Currents were sampled at 20 kHz, filtered at 2 kHz using the Clampex 10.4 software (Axon Instruments) or Patchmaster software. Leak currents before mechanical stimulations were subtracted offline from the current traces.
Mechanical stimulation was delivered to the cell during the patch-clamp recording at an angle of 80° using a fire-polished glass pipette (tip diameter 3–4 μm) as previously described[5],[6]. Downward movement of the probe toward the cell was driven by a Clampex-controlled piezo-electric crystal micro-stage (E625 LVPZT Controller/Amplifier; Physik Instrument). […] The poking distance shown in Fig. 3 includes the initial distance between the poking pipette and the cell, which cannot be accurately controlled, and the applied poking distance controlled by the Clampex-controlled piezo-electric crystal micro-stage. Thus, the actual poking distance on the cell membrane should be equal to the applied poking distance minus the initial distance between the poking pipette and the cell under recording. In the step-wise poking experiment, the patch was readily lost when the cell was broken at the end of the poking.
Stock solutions of Jedi1 (100 mM), Jedi2 (100 mM), and Yoda1 (30 mM) were solubilized in DMSO and diluted to the desired final concentrations as indicated in the figure legends using external or internal solutions. In Figs. 3a, 5b, and 6e, the compound solutions were puffed onto the cells using a multichannel perfusion system (MPS-2, World Precision Instruments) while continuously recording using a gap-free mode. In other conditions, the compounds were directly added to the recording chamber or pipette solution, and the currents were recorded within 10 min. In Figs. 5b and 6e, we used the Piezo1-KO-HEK cell line in which the endogenous Piezo1 gene is disrupted.

mPiezo1 [3] = target: T2, mPiezo1; assay: SPR binding to immobilized purified protein; conditions: immobilized mPiezo1 in C12E10, 25 °C
Description: We next employed the surface plasmon resonance (SPR) binding assay to examine whether Jedi1/2 bind directly to purified mPiezo1 proteins solubilized in the C12E10 detergent (Supplementary Fig. 2a, b). Based on an amine-coupling method, Piezo1 proteins (50 μg/ml) were optimally immobilized onto a research-grade CM5 sensor chip by using a buffer containing 10 mM sodium acetate (pH 5.0), 150 mM NaCl, 0.026% C12E10, and 0.05% Surfactant P20. […] Given the hydrophilic nature of Jedi1/2, it is possible that the amine-based attachment of the purified Piezo1 protein to the SPR sensor chip might affect the binding. […] Nevertheless, given their low binding affinity, we could not totally exclude the possibility that Jedi1/2 might indirectly activate Piezo1 in the cell.
Real-time binding and analysis by SPR were conducted on BIAcore T200 instrument (GE Healthcare) at 25 °C. Proteins were immobilized on a research-grade CM5 sensor chip by amine-coupling methods. During the pH scouting process, 10 mM sodium acetate at various pH including 4.0, 4.5, 5.0, and 5.5 and protein concentrations varying between 10 and 100 μg/ml were screened before immobilization. Except pH 4.5 for mPiezo1-(1–2190), pH 5.0 was used for all other proteins, including mPiezo1, CED, Δ15-16, and Δ19-20. All proteins were diluted to 50 μg/ml in buffer containing 10 mM sodium acetate at the abovementioned pH, 0.026% C12E10 detergent, and 150 mM NaCl, except that the soluble CED proteins, which were diluted in 150 mM NaCl without detergent. During the immobilization process, the CM5 sensor was activated with NHS first, allowing the amine-containing proteins to be coupled to the sensor through NHS. […]
For data collection, compounds at various concentrations were diluted in a running buffer containing 1× PBS, 0.026% detergent C12E10, and 0.05% Surfactant P20 (GE Healthcare Bio-Sciences AB) and injected over the flow cells with at a 30 μl/min flow rate. […] Data were analyzed with the BIAcore T200 evaluation software by fitting to a 1:1 affinity-binding model.

mPiezo1 [4] = target: T2, mPiezo1; assay: Inside-out patch recording of single-channel activity, compound in pipette solution; assay type: cell-based; conditions: −80 mV
Source text: For inside-out patch-clamp recordings using an Axopatch 200B amplifier (Axon Instruments), the “extracellular” pipette solution consists of (in mM) the following: 130 NaCl, 5 KCl, 10 HEPES, 1 CaCl2, 1 MgCl2, and 10 TEA-Cl (pH 7.3 with NaOH), and the intracellular “bath” solution contains (in mM) the following: 140 KCl, 10 HEPES, 1 MgCl2, and 10 glucose (pH 7.3 with KOH). All experiments were done at room temperature. Currents were sampled at 20 kHz using Clampex 10.4 software (Axon Instruments) and filtered at 2 kHz. Additional offline filtering of 1 kHz was applied to the recordings for display. Single-channel activity in the presence or absence of Jedi or Yoda1 was continuously recorded for 5 min at −80 mV. The single-channel open probability (NPo) and unitary conductance of mPiezo1 were analyzed using the pClamp software built-in features. Current amplitudes of individual cells recorded at −80 mV were calculated from Gaussian fits to the current amplitude histograms.

[5] = target: T3, L1342A/L1345A mutant proteins (Mus musculus, UniProt E2JF22, L1342A/L1345A); assay: SPR binding to purified L1342A/L1345A mutant protein
T3 construct: The full-length mPiezo1 has 2547 amino acids in each monomer; GST (PreScission site) (cleaved yes); made in house; host or cells: HEK293T
Description: as §1, §2

[6] = compound applied to the extracellular side

T2 sequence (E2JF22 whole entry): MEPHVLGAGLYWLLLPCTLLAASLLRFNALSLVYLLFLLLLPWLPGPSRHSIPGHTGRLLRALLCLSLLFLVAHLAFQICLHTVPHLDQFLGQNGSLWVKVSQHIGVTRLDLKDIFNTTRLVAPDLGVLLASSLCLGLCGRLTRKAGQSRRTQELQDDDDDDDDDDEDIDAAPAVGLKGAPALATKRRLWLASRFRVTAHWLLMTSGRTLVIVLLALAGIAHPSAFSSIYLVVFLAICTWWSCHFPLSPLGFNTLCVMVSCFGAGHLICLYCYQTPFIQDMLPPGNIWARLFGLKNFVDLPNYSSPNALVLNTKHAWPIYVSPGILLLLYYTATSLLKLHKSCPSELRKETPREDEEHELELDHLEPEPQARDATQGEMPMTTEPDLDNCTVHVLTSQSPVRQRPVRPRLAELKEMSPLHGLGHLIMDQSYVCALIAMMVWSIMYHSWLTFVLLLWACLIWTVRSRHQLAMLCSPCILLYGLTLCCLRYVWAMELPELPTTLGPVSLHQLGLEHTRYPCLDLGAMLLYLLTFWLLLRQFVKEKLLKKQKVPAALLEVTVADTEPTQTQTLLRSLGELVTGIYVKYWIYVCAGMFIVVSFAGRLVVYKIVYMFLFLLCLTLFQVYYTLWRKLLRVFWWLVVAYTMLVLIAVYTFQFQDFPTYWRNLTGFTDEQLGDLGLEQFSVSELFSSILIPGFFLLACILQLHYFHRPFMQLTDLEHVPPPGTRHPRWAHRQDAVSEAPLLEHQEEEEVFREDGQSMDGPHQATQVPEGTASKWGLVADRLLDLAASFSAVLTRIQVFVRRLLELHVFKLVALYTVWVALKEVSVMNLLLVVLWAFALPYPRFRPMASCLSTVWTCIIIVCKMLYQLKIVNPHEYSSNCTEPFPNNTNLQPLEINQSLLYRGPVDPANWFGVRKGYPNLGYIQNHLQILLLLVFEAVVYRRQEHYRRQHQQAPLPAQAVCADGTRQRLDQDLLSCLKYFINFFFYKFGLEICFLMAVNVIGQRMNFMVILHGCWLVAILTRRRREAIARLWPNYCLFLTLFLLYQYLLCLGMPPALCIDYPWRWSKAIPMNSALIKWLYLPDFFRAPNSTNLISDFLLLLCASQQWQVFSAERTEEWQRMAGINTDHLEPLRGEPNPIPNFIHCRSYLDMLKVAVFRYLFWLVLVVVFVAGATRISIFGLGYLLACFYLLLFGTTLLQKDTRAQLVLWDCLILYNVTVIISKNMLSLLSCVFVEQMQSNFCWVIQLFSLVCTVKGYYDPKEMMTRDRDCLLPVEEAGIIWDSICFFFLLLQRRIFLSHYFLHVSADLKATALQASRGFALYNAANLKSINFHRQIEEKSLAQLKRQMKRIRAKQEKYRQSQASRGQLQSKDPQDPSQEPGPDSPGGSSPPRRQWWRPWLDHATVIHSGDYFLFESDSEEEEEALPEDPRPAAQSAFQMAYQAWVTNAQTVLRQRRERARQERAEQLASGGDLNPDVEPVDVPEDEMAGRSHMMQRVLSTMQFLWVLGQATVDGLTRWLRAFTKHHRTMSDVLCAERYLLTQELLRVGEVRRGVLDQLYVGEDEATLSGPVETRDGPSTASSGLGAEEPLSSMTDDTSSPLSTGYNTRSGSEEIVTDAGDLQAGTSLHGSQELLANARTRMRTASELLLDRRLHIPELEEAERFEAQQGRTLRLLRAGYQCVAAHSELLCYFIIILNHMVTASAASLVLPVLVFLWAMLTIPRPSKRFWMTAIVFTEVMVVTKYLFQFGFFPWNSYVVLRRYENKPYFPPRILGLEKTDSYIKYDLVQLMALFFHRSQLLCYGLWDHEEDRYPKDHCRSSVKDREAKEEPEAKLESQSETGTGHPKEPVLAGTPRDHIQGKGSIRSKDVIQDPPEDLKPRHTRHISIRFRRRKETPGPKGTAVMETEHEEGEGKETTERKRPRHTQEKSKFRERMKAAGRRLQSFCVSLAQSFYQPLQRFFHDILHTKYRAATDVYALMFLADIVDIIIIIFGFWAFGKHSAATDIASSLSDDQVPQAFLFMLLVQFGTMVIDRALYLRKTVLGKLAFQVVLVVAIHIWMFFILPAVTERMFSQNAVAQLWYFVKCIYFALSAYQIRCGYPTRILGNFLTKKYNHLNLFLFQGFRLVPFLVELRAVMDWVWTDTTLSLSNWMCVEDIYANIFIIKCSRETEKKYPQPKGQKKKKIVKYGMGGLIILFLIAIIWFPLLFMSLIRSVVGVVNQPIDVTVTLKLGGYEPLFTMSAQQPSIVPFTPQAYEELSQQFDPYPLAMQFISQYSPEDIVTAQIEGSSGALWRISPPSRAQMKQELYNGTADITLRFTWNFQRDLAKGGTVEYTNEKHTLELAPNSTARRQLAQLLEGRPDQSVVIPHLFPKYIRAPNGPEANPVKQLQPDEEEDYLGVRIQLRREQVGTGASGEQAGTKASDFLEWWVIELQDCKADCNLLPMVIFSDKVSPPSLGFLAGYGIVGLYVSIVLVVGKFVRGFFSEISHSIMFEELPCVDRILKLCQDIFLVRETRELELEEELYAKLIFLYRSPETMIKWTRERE
T3 sequence (E2JF22 whole entry L1342A/L1345A): as the sequence (E2JF22 whole entry) above, with L1342A, L1345A counted along it

SMILES	binding to purified CED proteins (SPR) [1]	effect on poking currents and inactivation (mPiezo1 [2])	Kd (mPiezo1 [3]) [µM]	fold change of the open probability (NPo) (mPiezo1 [4])	binding to purified L1342A/L1345A mutant proteins (SPR) [5]	increase of poking-induced whole-cell currents (mPiezo1 [2]) [folds]	inactivation tau of poking-induced currents (mPiezo1 [2]; [6])	poking-induced maximal currents (Imax) (mPiezo1 [2]; [6])
Clc1cccc(Cl)c1CSc1nnc(-c2cnccn2)s1 [Yoda1, reference compound]	none	remained effective in enhancing the poking currents and slowing the inactivation	45.6 ± 14.3	14.8 ± 0.6 fold	retained the ability to bind			
Cc1oc(-c2cccs2)cc1C(=O)O [Jedi2]	none		2770 ± 178	significant increase in the opening probability	retained the ability to bind	5.4 ± 0.7		
Cc1oc(-c2ccccc2)cc1C(=O)O [Jedi1]	none	had no effect	2750 ± 425	9.6 ± 2.4 fold	retained the ability to bind	3.8 ± 0.5	slowed the inactivation tau	significantly enhanced
